The target of assay [1] is T1, Scaffold protein ILK (Homo sapiens) (UniProt Q13418).
T1 sequence (whole entry): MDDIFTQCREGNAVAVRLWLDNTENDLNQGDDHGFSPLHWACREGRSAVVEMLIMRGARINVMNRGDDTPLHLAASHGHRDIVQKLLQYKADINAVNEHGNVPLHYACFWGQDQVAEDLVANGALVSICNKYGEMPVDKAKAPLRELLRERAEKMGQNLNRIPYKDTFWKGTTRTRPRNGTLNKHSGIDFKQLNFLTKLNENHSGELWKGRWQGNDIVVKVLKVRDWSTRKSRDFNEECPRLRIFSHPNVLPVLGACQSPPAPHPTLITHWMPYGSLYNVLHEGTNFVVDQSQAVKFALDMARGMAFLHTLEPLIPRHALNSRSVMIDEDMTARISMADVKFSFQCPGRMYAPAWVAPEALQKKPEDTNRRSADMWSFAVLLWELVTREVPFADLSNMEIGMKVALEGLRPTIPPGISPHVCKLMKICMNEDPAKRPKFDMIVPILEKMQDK
Put plainly: Inhibition of ILK Lys1 labeling site in human A-375 cells at 0.05 uM by KiNativ Profiling analysis relative to control. Format: cell-based.

The target of assay [2] is Ephrin type-B receptor 1 (Homo sapiens) (UniProt P54762). The assay is described as follows: Inhibition of EPHB1 (unknown origin) at 1 uM by Ambit Kinomescan binding assay relative to control; values are per cent of control.
Ephrin type-B receptor 1 (Homo sapiens), sequence (P54762 whole entry): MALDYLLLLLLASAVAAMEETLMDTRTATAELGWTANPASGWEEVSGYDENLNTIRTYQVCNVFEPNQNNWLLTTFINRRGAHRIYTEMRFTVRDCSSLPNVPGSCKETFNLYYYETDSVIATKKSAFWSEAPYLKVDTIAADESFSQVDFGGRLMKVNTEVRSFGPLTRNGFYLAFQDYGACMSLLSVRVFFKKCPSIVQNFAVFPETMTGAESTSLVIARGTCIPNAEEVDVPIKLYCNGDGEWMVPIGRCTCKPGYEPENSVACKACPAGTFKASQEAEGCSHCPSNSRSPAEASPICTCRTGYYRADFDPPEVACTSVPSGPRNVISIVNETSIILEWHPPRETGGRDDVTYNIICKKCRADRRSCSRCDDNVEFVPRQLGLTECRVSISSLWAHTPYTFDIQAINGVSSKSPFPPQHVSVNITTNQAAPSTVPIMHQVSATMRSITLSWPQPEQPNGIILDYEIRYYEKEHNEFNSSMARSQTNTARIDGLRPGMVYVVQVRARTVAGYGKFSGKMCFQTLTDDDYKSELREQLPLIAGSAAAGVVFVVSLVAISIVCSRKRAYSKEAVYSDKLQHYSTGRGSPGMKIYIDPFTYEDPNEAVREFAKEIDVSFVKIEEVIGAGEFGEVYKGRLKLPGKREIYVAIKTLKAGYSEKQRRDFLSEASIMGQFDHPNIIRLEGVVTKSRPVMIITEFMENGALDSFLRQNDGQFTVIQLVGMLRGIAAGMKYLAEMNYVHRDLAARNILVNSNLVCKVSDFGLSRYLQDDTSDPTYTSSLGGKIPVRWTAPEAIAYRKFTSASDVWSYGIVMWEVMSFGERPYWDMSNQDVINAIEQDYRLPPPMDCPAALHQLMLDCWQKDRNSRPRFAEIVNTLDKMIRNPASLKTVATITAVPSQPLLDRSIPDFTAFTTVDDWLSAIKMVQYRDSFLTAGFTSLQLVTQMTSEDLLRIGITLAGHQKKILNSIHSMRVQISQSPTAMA
The target in assay [3] is cGMP-dependent protein kinase 2 (Homo sapiens) (UniProt Q13237). Put plainly: Inhibition of PRKG2 (unknown origin) at 1 uM by Ambit Kinomescan binding assay relative to control.
cGMP-dependent protein kinase 2 (Homo sapiens), sequence (Q13237 whole entry): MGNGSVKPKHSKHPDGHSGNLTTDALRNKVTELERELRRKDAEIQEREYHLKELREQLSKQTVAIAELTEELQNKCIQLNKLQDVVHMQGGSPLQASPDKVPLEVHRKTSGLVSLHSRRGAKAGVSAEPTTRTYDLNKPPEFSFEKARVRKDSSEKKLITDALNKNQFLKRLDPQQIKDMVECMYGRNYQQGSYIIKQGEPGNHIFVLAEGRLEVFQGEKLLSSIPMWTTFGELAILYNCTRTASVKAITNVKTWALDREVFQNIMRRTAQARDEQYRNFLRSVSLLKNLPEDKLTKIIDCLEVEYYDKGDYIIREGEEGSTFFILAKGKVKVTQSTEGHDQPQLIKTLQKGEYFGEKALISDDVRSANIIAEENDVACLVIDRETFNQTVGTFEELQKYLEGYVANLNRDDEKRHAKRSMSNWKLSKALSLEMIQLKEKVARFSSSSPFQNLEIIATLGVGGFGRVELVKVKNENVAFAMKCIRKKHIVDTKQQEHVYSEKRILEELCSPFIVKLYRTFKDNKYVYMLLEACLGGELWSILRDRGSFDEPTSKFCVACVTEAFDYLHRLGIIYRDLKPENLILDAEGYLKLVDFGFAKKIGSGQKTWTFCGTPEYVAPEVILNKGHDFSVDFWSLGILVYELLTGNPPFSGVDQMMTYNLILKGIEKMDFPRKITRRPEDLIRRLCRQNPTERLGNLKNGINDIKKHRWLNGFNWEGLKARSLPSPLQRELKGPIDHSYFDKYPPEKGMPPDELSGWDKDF
Assay [4] deals with Receptor-type tyrosine-protein kinase FLT3 (Homo sapiens), P36888 [R834Q]. The assay is described as follows: Inhibition of FLT3 R834Q mutant (unknown origin) at 1 uM by Ambit Kinomescan binding assay relative to control; values are per cent of control.
For assay [5], the target named is Serine/threonine-protein kinase 10 (Homo sapiens) (UniProt O94804). The assay is described as follows: Inhibition of LOK Lys2 labeling site in human A-375 cells at 5 uM by KiNativ Profiling analysis relative to control. Format: cell-based.
Serine/threonine-protein kinase 10 (Homo sapiens), sequence (O94804 whole entry, looked up): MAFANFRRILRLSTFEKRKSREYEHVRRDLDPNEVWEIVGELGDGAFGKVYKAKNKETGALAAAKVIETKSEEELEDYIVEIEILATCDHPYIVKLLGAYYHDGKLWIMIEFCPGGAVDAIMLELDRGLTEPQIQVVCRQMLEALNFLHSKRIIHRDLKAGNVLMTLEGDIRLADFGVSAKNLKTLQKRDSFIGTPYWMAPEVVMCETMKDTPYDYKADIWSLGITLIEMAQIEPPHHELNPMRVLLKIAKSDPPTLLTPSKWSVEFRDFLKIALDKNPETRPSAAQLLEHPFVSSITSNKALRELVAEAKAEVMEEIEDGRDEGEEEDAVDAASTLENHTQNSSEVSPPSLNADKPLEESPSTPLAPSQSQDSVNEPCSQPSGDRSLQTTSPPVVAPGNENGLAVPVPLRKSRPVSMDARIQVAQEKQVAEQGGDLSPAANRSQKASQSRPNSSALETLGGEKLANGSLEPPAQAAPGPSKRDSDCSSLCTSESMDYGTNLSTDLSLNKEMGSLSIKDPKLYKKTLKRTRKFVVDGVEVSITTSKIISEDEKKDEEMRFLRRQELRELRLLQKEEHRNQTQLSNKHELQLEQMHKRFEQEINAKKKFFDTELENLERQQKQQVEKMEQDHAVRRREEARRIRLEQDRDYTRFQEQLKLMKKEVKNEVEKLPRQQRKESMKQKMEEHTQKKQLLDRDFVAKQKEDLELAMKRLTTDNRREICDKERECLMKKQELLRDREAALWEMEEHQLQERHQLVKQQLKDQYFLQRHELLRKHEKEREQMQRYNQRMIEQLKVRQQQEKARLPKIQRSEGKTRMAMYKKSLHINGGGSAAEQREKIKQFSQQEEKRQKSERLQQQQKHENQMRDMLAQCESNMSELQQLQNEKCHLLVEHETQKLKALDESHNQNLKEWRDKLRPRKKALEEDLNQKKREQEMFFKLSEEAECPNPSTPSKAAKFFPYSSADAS
Assay [6] has as its target Glycogen synthase kinase-3 beta (Homo sapiens) (UniProt P49841). The assay is described as follows: Inhibition of GSK3B Lys2 labeling site in human A-375 cells at 5 uM by KiNativ Profiling analysis relative to control. Format: cell-based.
The target in assay [7] is Microtubule-associated serine/threonine-protein kinase 3 (Homo sapiens) (UniProt O60307). The assay is described as follows: Inhibition of MAST3 Lys2 labeling site in human A-375 cells at 0.05 uM by KiNativ Profiling analysis relative to control. Format: cell-based.
Assay [8] concerns the target T2, Dual specificity mitogen-activated protein kinase kinase 3 (Homo sapiens) (UniProt P46734).
T2 sequence (whole entry): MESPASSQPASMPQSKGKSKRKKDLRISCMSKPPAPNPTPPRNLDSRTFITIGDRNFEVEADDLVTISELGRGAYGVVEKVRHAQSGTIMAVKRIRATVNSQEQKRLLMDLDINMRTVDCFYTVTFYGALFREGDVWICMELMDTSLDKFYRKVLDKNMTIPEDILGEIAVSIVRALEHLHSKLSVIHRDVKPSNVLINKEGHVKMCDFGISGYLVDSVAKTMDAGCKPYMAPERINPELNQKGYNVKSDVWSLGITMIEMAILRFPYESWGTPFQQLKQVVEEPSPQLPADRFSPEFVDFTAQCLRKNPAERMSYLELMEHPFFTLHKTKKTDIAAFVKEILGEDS
Put plainly: Inhibition of MEK3 (unknown origin) at 10 uM by Ambit Kinomescan binding assay.

For assay [9], the target named is Tyrosine-protein kinase JAK1 (Homo sapiens) (UniProt P23458). The assay is described as follows: Inhibition of JAK1 domain2 Lys1 labeling site in human A-375 cells at 0.5 uM by KiNativ Profiling analysis relative to control. Format: cell-based.
Tyrosine-protein kinase JAK1 (Homo sapiens), sequence (P23458 whole entry, the tested form may be a part): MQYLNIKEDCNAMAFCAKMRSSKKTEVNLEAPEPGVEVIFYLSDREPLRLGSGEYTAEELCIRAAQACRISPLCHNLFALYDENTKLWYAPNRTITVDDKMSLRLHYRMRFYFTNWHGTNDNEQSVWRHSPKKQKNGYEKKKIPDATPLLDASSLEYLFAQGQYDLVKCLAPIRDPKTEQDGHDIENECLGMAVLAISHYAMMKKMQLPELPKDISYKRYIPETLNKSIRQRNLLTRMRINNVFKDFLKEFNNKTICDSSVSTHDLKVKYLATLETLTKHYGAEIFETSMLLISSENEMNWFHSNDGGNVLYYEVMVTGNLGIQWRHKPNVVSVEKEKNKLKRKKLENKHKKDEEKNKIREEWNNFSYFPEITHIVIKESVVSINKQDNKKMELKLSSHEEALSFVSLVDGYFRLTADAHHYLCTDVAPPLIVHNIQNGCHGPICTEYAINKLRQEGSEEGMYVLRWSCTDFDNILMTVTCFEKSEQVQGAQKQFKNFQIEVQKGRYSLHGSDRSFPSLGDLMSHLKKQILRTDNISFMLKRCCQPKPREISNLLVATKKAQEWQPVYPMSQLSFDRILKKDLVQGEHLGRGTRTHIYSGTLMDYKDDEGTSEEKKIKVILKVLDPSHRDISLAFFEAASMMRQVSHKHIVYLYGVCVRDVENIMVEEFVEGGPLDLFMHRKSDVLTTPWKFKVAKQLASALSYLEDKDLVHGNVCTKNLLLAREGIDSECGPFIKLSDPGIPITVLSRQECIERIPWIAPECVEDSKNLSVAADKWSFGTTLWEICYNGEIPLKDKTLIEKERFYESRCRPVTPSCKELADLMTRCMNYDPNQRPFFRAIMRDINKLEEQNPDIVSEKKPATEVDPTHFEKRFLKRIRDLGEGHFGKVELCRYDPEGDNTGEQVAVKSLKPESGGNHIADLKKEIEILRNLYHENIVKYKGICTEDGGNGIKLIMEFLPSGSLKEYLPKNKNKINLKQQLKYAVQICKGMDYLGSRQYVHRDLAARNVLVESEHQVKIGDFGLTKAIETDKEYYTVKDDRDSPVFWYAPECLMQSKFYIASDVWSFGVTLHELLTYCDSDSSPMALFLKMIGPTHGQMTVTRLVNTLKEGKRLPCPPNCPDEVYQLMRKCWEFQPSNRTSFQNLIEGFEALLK
Assay [10] addresses Tyrosine-protein kinase Fer (Homo sapiens, UniProt P16591). The assay is described as follows: Inhibition of FER K1 labeling site in human Huh-7 cells at 10 uM by KiNativ Profiling analysis relative to control. Format: cell-based.
Assay [11] concerns the target Calcium/calmodulin-dependent protein kinase type II subunit delta (Homo sapiens) (UniProt Q13557). Put plainly: Inhibition of CaMK2d Lys1 labeling site in human A-375 cells at 5 uM by KiNativ Profiling analysis relative to control. Format: cell-based.
The target of assay [12] is T3, Eukaryotic elongation factor 2 kinase (Homo sapiens) (UniProt O00418).
T3 sequence (whole entry): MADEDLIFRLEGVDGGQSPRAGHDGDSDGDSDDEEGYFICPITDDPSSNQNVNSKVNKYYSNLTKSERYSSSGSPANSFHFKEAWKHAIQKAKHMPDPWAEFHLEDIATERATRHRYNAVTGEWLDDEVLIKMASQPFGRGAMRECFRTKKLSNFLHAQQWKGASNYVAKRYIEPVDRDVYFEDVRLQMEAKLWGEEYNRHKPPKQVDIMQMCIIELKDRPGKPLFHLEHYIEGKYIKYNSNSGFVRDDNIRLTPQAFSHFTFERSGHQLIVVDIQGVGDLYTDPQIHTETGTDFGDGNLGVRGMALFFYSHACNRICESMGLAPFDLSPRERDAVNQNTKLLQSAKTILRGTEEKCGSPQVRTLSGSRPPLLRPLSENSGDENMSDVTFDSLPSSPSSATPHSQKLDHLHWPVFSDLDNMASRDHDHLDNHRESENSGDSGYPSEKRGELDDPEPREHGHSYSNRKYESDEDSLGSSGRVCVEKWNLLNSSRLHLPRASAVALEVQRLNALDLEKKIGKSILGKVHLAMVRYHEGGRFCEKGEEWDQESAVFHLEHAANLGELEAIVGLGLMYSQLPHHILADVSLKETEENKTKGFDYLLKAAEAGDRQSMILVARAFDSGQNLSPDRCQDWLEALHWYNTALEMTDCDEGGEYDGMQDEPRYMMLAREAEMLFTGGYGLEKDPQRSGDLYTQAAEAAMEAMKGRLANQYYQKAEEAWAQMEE
Put plainly: Inhibition of eEF2K ATP labeling site harbouring YIKYNSNSGFVRDDNIR in human A-375 cells at 0.5 uM by KiNativ Profiling analysis relative to control. Format: cell-based.

Assay [13] deals with T4, Dual specificity mitogen-activated protein kinase kinase 6 (Homo sapiens) (UniProt P52564).
T4 sequence (whole entry): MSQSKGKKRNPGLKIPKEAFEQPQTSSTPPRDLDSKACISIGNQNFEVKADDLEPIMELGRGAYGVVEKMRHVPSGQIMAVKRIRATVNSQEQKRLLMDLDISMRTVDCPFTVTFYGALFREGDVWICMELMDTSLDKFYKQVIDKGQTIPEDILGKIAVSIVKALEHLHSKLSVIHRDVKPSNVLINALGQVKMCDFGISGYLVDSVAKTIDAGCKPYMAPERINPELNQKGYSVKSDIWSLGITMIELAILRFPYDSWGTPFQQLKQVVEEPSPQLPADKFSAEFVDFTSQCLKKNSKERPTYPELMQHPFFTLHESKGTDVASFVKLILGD
Put plainly: Inhibition of MAP2K6 Lys1 labeling site in human A-375 cells at 0.5 uM by KiNativ Profiling analysis relative to control. Format: cell-based.

The source of these data is ChEMBL document CHEMBL5696442, “Discovery of type II inhibitors of TGFβ-activated kinase 1 (TAK1) and mitogen-activated protein kinase kinase kinase kinase 2 (MAP4K2)” (J Med Chem, 2015).

One may read the inhibition as the relative decrease from the control value, in per cent. The term residual activity denotes the share of the control activity or signal that is left under treatment. Read a high residual activity as much activity left.

The source made the active and inactive calls. No cut-off for these calls is given here.

Glycogen synthase kinase-3 beta (Homo sapiens), sequence (P49841 whole entry, looked up): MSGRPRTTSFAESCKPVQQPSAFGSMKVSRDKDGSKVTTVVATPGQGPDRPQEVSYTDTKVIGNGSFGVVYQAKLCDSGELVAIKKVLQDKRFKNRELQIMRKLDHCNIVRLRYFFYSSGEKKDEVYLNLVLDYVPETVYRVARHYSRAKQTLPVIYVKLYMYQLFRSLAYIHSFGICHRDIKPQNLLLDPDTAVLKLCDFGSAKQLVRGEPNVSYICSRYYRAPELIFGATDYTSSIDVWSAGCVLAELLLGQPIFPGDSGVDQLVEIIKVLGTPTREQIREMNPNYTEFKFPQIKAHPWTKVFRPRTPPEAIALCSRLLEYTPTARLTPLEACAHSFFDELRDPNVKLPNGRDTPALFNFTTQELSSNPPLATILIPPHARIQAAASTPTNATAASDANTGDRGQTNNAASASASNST
Calcium/calmodulin-dependent protein kinase type II subunit delta (Homo sapiens), sequence (Q13557 whole entry): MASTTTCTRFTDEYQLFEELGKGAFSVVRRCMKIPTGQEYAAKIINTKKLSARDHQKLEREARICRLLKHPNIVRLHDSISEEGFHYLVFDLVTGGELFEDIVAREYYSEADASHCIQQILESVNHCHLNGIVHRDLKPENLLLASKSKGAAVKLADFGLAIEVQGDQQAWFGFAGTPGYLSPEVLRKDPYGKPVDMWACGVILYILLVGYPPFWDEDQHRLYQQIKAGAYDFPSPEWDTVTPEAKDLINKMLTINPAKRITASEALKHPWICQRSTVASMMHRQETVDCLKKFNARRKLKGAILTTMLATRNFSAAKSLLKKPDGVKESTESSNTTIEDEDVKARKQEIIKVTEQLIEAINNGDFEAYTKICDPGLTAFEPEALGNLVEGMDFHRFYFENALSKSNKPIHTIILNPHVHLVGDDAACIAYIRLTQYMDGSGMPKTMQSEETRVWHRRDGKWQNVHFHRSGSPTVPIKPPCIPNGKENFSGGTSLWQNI

For the molecule `CCN1CCN(Cc2ccc(NC(=O)c3ccc(C)c(/C=C/c4cnc5[nH]ccc5c4OC)c3)cc2C(F)(F)F)CC1`, the inhibition in assay [1] came out at 3.9%; in [3] it was 82%; in [5], 77.4%; in [6], 34.6%. In addition, the residual activity in assay [2] came to 11%; in assay [4], 7.4%.
In the case of `CCN1CCN(Cc2ccc(NC(=O)c3ccc(C)c(Oc4ccnc5[nH]ccc45)c3)cc2C(F)(F)F)CC1`, the inhibition was -3.3% in assay [7]; 30.1% in [9]; 83.3% in [10]; 18.9% in assay [11]; 0.1% in assay [12]; 4.5% in assay [13]. In addition, the inhibition result in assay [8] is “inactive”.
